Test results: patent US9950026B2, “Methods for reducing oxidative damage” (Cornell Research Foundation, Inc., priority 2004, dated 2018)
Where a SMILES comes first, the peptide text is derived from it. [ ]: non-standard residue; d: D form. Dmt = Cc1cc(O)cc(C)c1C[C@H](N)C(=O)O

Key:
SH-SY5Y cells = assay: Mitochondrial function, MTT assay, after tBHP; format: cell-based, human; details: tBHP 50-100 μM, 24 h
Description: FIG. 23A-23B. SS-31 protected against tBHP-induced mitochondrial viability. (A) SS-31 protected mitochondrial viability in N2A cells treated with tBHP for 24 h. Mitochondrial viability was evaluated using the MTT assay (*P<0.01 compared to untreated cells, *P<0.05, P<0.01 compared to tBHP alone). […]
Only viable mitochondria containing NADPH dehydrogenase activity are capable of cleaving MTT to the formazan. A 50 μM tBHP induced 50% loss of mitochondrial function in N2A cells (FIG. 23A, […]) and 30% loss of mitochondrial function in SH-SY5Y cells (FIG. 23B, P<0.01). […] Treatment of N2A cells with SS-31 alone had no effect on mitochondrial function.

[1] = tested on: G93A-SOD transfected murine neuroblastoma (N2A) cells; assay: H2O2-induced cell death (LDH release); format: cell-based; details: SS-31 between 1 and 100 μM added 1 h after exposure to H2O2
Description: FIG. 24. Increased hydrogen peroxide (H2O2) sensitivity of G93A-SOD transfected murine neuroblastoma (N2A) cells as compared to wildtype SOD-transfected N2A cells after addition of 0.5 or 1 mM H2O2 for 1 h. Cell death was quantified by measurement of the percentage of H2O2-induced LDH release of total cellular LDH-content. […] Values are means+S.D., n=4-5, *p<0.1, **p<0.05, Student's t-test.

G93A mice = assay: Lumbar spinal cord cell counts and immunostaining in ALS mice; format: in vivo
Excerpt: FIG. 27. Attenuation of motor neuron loss by SS-31 in the ventral horn of the lumbar spinal cord of G93A mice. Photomicrographs show cresyl violet stained sections through the ventral horn of the lumbar spinal cord from non-transgenic control (A) and G93A mice treated with vehicle (PBS) (B) or SS-31 (C) at 110 days of age. […] Values are mean±standard error of means.
(§1) FIG. 28A-28C. 4-hydroxynonenol immunostaining. Photomicrographs of representative sections through the ventral horn of the lumbar spinal cord of wild-type control (A), and G93A mice treated with vehicle (B) or SS-31 (C) show generalized reduction of 4-hydroxynonenal staining in neurons and neurophils in drug-treated mice.
as §1, with “29A-29C. Nitrotyrosine” for “28A-28C. 4-hydroxynonenol”, “nitrotyrosine” for “4-hydroxynonenal”

[2] = tested on: Mouse pancreatic islet cells; assay: tBHP oxidative damage in islet cells (TMRM, DCF); format: cell-based; details: 25 μM tBHP, 1 nM SS-31
Description: Mouse pancreatic islet cells were untreated (a), or treated with 25 μM tBHP without or with 1 nM SS-31 (c). Mitochondrial potential was measured by TMRM (red) and reactive oxygen species were measured by DCF (green) using confocal microscopy.

N2A cells [3] = assay: Lipid peroxidation, HNE Michael adducts, after tBHP; format: cell-based, murine; details: t-BHP 1 mM, 3 h
Description: Lipid peroxidation was evaluated by measuring HNE Michael adducts. 4-HNE is one of the major aldehydic products of the peroxidation of membrane polyunsaturated fatty acids. N2A cells were seeded on glass bottom dish 1 day before t-BHP treatment (1 mM, 3 h, 37° C., 5% CO2) in the presence of absence of SS-31 (10^−8 to 10^−10 M). Cells were then washed twice with PBS and fixed 30 min with 4% paraformaldehyde in PBS at RT and then washed 3 times with PBS. Cells were then permeabilized, treated with rabbit-anti-HNE antibody followed by the secondary antibody (goat anti-rabbit IgG conjugated to biotin). Cells were mounted in Vectashield and imaged using a Zeiss fluorescence microscope using an excitation wavelength of 460±20 nm and a longpass filter of 505 nm for emission.

DBA/2 islet cells = assay: Islet cell uptake of [3H]SS-31; format: in vitro ADME, mouse
Description: FIG. 33A-33B. SS peptides penetrate islet cells, co-localize with mitochondria and preserve islet mitochondrial membrane potential. (A) Islet cell uptake of SS-31. DBA/2 islet cells were incubated with 1 nM of tritium labeled SS-31 and 1 μM unlabeled SS-31 at 37° C. for 1 h. Following incubation, radioactivity was measured in the medium and in cell lysates and the radioactive counts in the medium were subtracted from radioactive counts in the cell lysate and normalized to protein content. In four consecutive experiments, the mean±(SE) [^3H]SS-31 uptake was 70.2+/31 10.3 pmol/mg, of proteins (B)(i-iv) SS-31 preserves islet mitochondrial potential. DBA/2 mice were treated with SS-31 (3 mg/kg s.c. BID) or vehicle control 24 hours prior to pancreas harvest for islet isolation. SS-31 treated groups had 1 nM SS-31 added to the islet isolation reagents. Following isolation, TMRM uptake was evaluated using confocal laser scanning microscopy.
Islets are tightly adherent cell clusters and entry of peptides/proteins may be impaired given their architecture.

N2A cells [4] = assay: Nuclear condensation (Hoechst) after tBHP; format: cell-based, murine; details: 50 μM tBHP, 12 h
Description: FIG. 20A-20C. […] (A)(a-c; a′-c′) N2A cells were treated with 50 μM tBHP alone or with SS-31 for 12 h. Cells were stained with Hoechst 33342 for 20 min., fixed, and imaged by fluorescent microscopy. (a) Untreated cells show uniformly stained nuclei (a′). […] (c) Cells treated with tBHP and 1 nM SS-31 had less nuclear changes (c′). […] Apoptotic cells were counted using MetaMorph software. *P<0.01 compared to untreated cells; *P<0.01 compared to tBHP alone. […] SH-SY5Y cells were treated with 25 μM tBHP for 24 h. *P<0.01 compared to untreated cells; *P<0.01 compared to tBHP alone.
The morphological appearance of cells treated with tBHP was also consistent with apoptosis. N2A cells incubated with 50 μM tBHP for 12 h became rounded and shrunken (FIG. 20A, panel b). […] These nuclear changes were abolished by concurrent treatment with 1 nM SS-31 (FIG. 20A, panel c′).

[5] = Scavenging of H2O2, luminol-induced chemiluminescence; format: biochemical; details: H2O2 4.4 nmol, 20 min, 37° C.
Description: Effect of SS-02 and SS-05 (Dmt-D-Arg-Phe Orn-NH2) on H2O2 as measured by luminol-induced chemiluminescence, 25 μM luminol and 0.7 IU horseradish peroxidase were added to the solution of H2O2 (4.4 nmol) and peptide, and chemiluminescence was monitored with a Chronolog Model 560 aggregometer (Havertown, Pa.) for 20 min at 37° C.

Caco-2 cells = assay: Mitochondrial potential (TMRM) after tBHP; format: cell-based, human; details: tBHP 1 mM, SS-02 0.1 μM, 4 h
Description: Caco-2 cells were treated with tBHP (1 mM) in the absence or presence of SS-02 (0.1 μM) for 4 h, and then incubated with TMRM and examined under LSCM. In control cells, the mitochondria are clearly visualized as fine streaks throughout the cytoplasm.

| Molecule | tBHP-induced mitochondrial toxicity (MTT) (SH-SY5Y cells) | H2O2-induced cell death [1] | cell loss in the lumbar spinal cord (stereological cell counts) (G93A mice; mouse, in vivo) | 3-nitrotyrosine immunostaining (protein nitration) (G93A mice; spinal cord) | 4-hydroxynonenenal immunostaining (lipid peroxidation) (G93A mice; spinal cord) | oxidative damage caused by tBHP [2] | lipid peroxidation (HNE adducts) (N2A cells [3]) | penetration of intact mouse islets (DBA/2 islet cells) | number of apoptotic cells (N2A cells [4]) | nuclear changes (fragmentation and condensation) (N2A cells [4]; 1 nM SS-31) | luminol response (H2O2 scavenging) [5] | mitochondrial depolarization caused by tBHP (Caco-2 cells) |
| --- | --- | --- | --- | --- | --- | --- | --- | --- | --- | --- | --- | --- |
| Cc1cc(O)cc(C)c1C[C@H](NC(=O)[C@H](N)CCCNC(=N)N)C(=O)N[C@@H](CCCCN)C(=O)N[C@@H](Cc1ccccc1)C(N)=O [SS-31, D-Arg-2′6′-Dmt-Lys-Phe-NH2] (H-[dR][Dmt]KF-NH2; N-terminus assumed) | dose-dependently reduced | significantly reduced | significantly ameliorated | markedly reduced | markedly reduced | reduces oxidative damage | inhibited lipid peroxidation | readily penetrates | dose-dependently reduced | abolished |  |  |
| 2′,6′-Dmt-Arg-Phe-Lys-NH2 [SS-02] |  |  |  |  |  |  |  |  |  |  | dose-dependently inhibited | protected against mitochondrial depolarization |
